Measured values taken from US8071604B2, “Thio-substituted arylmethanesulfinyl derivatives” (Cephalon France, priority 2007, dated 2011).

Tests used:
rats = assay: Evaluation of wake promoting activity in rats (EEG/EMG sleep/wake scoring); format: in vivo, rat (adult male Wistar); conditions: i.p. route, 100 mg/kg dose; for Mean AUC0-3 h values, Test compound Mean: n = 8 rats per test compound, time awake in first 3 hrs following dosing; for wakefulness as compared to vehicle-treated control groups: rats, p<0.05 vs vehicle
Experimental: Methodology: Evaluation of Wake Promoting Activity in Rats
The methodology utilized for evaluating wake promoting activity of test compounds is based on that described by Edgar and Seidel, Journal of Pharmacology and Experimental Therapeutics, 283:757-769, 1997, and incorporated herein in its entirety by reference.
Animal Surgery. Adult, male Wistar rats (275-320 g from Charles River Laboratories, Wilmington, Mass.) were anesthetized (Nembutal, 45 mg/kg, ip.) and surgically prepared with implants for recording of chronic EEG (encephalographic) and EMG (electromyographic) recording. The EEG implants were made from commercially available components (Plastics One, Roanoke, Va.). EEG signals were recorded from stainless steel screw electrodes: 2 frontal (+3.0 mm AP from bregma, ±2.0 mm ML), and 2 occipital (−4.0 mm AP from bregma, ±2.0 mm ML). Two Teflon-coated stainless steel wires were positioned under the nuchal trapezoid muscles for EMG recording. All electrode leads were inserted into a connector pedestal and the pedestal affixed to the skull by application dental acrylic. Antibiotic was administered post surgically and antibiotic cream was applied to the wound edges to prevent infection. At least one week elapsed between surgery and recording.
Recording environment. Postsurgically, rats were housed in pairs in an isolated room. Food and water were available ad libitum, ambient temperature was 21° C., and humidity was 55%. At least 24 hrs prior to recording, they were placed in Nalgene containers (31×31×31 cm) with a wire-grid top, and entry to the room was prohibited during the day of recording except for dosing. The containers were placed on a rack with two shelves, 4 containers per shelf. Fluorescent overhead room lights were set to a 24 hr. light/dark cycle (on at 7 AM, off at 7 PM). Light levels inside the containers were 38 and 25 lux for the top and bottom shelves respectively. Background white-noise (68 db inside the containers) was present in the room to mask ambient sounds.
Data acquisition. EEG and EMG signals were led via cables to a commutator (Plastics One) and then to pre-amplifiers (model 1700, A-M Systems, Carlsborg, Wash.). EEG and EMG signals were amplified (10K and 1K respectively) and bandpass filtered between 0.3 and 500 Hz for EEG and between 10 and 500 Hz for EMG. […] On the day of dosing, data was recorded for 6 to 10 hours beginning at 11 AM.
Drug administration and study design. Compounds were evaluated on groups of from 4 to 8 rats carried out over one or two separate test sessions. […]
Sleep/wake scoring. Sleep and wake activity were determined manually using ICELUS software. […]

| melting point | SMILES | Mean AUC0-3 h values, Test compound Mean (rats) | wakefulness as compared to vehicle-treated control groups (rats) |
| --- | --- | --- | --- |
| 153 to 154 °C | NC(=O)C[S+]([O-])Cc1ccccc1COc1ccccc1 (centres unmarked) |  |  |
|  | CC(=O)N1CCN(C(=O)C[S+]([O-])Cc2ccc(Oc3ccc(Cl)c(Cl)c3)cc2)CC1 (centres unmarked) [Example 22, 1-(4-Acetyl-piperazin-1-yl)-2-[4-(3,4-dichloro-phenoxy)-phenylmethanesulfinyl]-ethanone] | 162.7 % of waiking time × hr | significantly greated wakefulness |
|  | NC(=O)C[S+]([O-])Cc1ccccc1NC(=O)c1ccc(Cl)cc1 (centres unmarked) [Example 113, N-(2-Carbamoylmethanesulfinylmethyl-phenyl)-4-chloro-benzamide] | 99.0 % of waiking time × hr | significantly greated wakefulness |
